Laboratory results: patent publication US8481519B2 (LTS Lohmann Therapie-Systeme AG, priority 2005, dated 2013)

What was measured:
[1] = molecular target: T1, human androgen receptor (hAR) (Homo sapiens, UniProt P10275); experiment: androgen receptor-dependent MMTV-luc reporter gene assay (luciferase assay) in transfected CV1 cells; assay type: cell-based; settings: for antiandrogenic effect of atraric acid derivatives and structurally similar compounds: FIGS. 6 and 7, concentration not given (FIG. 6: 10^−6 M); for inactivation of androgen receptor-mediated transactivation: 1 μM concentration; for inhibition of androgen receptor-mediated transactivation: 10 μM concentration, FIG. 7
T1 construct: expressed in transfected cells; host or cells: CV1 monkey kidney cells, which lack endogenous androgen receptor
T1 sequence (P10275 1-920): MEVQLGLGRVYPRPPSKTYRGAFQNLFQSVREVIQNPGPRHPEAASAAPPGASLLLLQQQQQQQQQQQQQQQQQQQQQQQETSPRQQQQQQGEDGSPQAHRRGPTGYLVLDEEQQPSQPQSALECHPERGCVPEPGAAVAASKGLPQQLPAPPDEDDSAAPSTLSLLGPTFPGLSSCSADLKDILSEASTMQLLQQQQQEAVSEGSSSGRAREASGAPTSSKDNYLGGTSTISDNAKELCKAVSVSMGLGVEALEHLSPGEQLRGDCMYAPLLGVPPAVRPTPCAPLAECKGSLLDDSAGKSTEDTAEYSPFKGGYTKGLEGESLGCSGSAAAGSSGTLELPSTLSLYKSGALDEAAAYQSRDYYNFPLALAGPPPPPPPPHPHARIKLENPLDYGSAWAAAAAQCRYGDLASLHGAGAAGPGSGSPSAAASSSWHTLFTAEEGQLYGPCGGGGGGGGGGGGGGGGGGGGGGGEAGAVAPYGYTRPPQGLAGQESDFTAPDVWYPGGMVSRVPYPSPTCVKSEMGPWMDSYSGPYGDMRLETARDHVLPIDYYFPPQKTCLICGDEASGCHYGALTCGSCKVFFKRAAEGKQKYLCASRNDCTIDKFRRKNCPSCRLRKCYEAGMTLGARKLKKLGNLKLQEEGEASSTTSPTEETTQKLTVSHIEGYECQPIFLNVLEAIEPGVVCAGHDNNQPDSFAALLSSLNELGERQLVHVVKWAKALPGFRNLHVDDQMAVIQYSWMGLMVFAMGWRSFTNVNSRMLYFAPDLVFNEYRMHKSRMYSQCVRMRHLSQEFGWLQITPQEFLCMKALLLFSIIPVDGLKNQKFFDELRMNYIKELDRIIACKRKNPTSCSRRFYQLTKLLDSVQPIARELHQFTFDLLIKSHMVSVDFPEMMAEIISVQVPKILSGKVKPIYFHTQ
Description: The potentially antiandrogenic efficacy of the extracts obtained was examined with the androgen receptor-dependent MMTV-luc reporter gene assay, in the following designated as luciferase assay.
In that assay, the enzyme luciferase serves as a reporter gene. Luciferase is an oxidoreductase from the North American firefly Photinus pyralis, which […] the substrate luciferin in the presence of aerial oxygen, ATP and Mg^2+ ions, to oxyluciferin. The energy emitted in the process is emitted as light.
The reporter gene luciferase is located on the plasmid pMMTV-luc (MMTV=Mouse mammary tumour virus), on which is also located the androgen-responsive element (ARE). The plasmid pMMTV-luc is transfected, together with the androgen receptor expression vector, into fibroblasts of the monkey kidney. If an androgen is added thereto, this androgen will bind, in a complex with the androgen receptor, to the androgen-responsive element. This process then initiates the transcription of the following gene, namely that of the luciferase reporter gene. The amount of the expressed luciferase is directly proportional to the amount of light released when adding luciferin, and the amount of light can be quantified by measuring the emission at λ=562 nm. If apart from the androgen there is also an antiandrogenic substance or an antiandrogenic extract, the transactivation of the luciferase reporter gene by the androgen-responsive element is inhibited and later, when the substrate is added, a correspondingly smaller amount of light energy is released.
The extracts were then examined at two concentrations (300 μg/ml and 600 μg/ml) for their antiandrogenic bioactivity using the luciferase assay.
Monkey kidney cells, line CV1, lacking endogenous androgen receptor, were cultured in Dulbecco's modified Eagle's medium (DMEM), supplemented with 10% (v/v) fetal calf serum, penicillin (100 IU/ml) and streptomycin (100 IU/ml), at 37° C. and 5% CO2.
For the transfection experiments, the cells were seeded onto 6-well cell culture plates (Nunc, Roskilde, Denmark) with a density of 1.2×10^5 cells per well, and grown in DMEM medium supplemented with 10% (v/v) dextran-coated activated charcoal stripped serum. Six hours after seeding, the cells were transfected by using the Ca3(PO4)2 method. The human androgen receptor (hAR) expression vector (0.2 μg) was cotransfected with 1 μg of the reporter plasmid MMTV-luc and 0.2 μg of the cytomegalovirus (CMV)-driven β-galactosidase expression virus, as internal control for transfection efficiency. After 14 hours, the medium was replaced either without (white bars in FIGS. 1 to 3) or with the addition of methyltrienolone (R1881, 3×10^−10 M final concentration; black bars in FIGS. 1 to 3) together with the indicated extracts (FIG. 1), fractions of the methylene chloride extract (FIG. 2) or individual isolated compounds (FIG. 3). After an additional 48 hours, cells were harvested and assayed for luciferase and β-galactosidase activity.
Luciferase activity was determined by injecting luciferin and measuring light emission at 562 nm and expressed as relative light units (RLU) by using the values […] β-galactosidase activity for normalisation of the luciferase activity. All transfection assays shown were performed in duplicate and were repeated at least twice.
For determining antiandrogenic activity in the various extracts from the bark of P. africana, the extracts were used at a concentration of 300 μg/ml.
For determining the antiandrogenic activity in the fractions of the selective methylene chloride extracts, 2 μl of the respective fraction was used, corresponding to a final concentration of 30 μg/ml. Fractions 6 to F10 were additionally tested with 4 μl, corresponding to 60 μg/ml final concentration.

[2] = tested on: human prostate carcinoma cells (cell line LNCaP); experiment: LNCaP cell growth assay; assay type: cell-based; settings: FIG. 4; for growth of LNCaP cells: atraric acid 10 μM, OH—F 0.1 μM
Procedure: The growth of prostate cells and prostate cancer cells is originally dependent on androgens.
Human prostate carcinoma cells (cell line LNCaP) were cultured in RPMI-1640 medium that was supplemented with 10% (v/v) fetal calf serum, penicillin (100 IU/ml) and streptomycin (100 IU/ml), 2 mM glutamine and 1 mM sodium pyruvate.
For the cell growth assays, LNCaP cells were seeded onto a 24-well cell culture plate at a density of 5×10^3 cells per well and cultured in RPMI-1640 medium containing 5% fetal calf serum. […] Every second day the medium was replaced with fresh medium together with freshly added compounds. The cells were trypsinized and counted using a counting cell chamber on the indicated days.

human ERβ = molecular target: T2, human ERβ (Homo sapiens, UniProt Q92731); experiment: p2ERE-TATA-luc reporter gene assay in CV1 cells transfected with ERβ; assay type: cell-based; settings: FIG. 8
T2 construct: expressed in transfected cells; host or cells: CV1 cells
T2 sequence (Q92731 whole entry): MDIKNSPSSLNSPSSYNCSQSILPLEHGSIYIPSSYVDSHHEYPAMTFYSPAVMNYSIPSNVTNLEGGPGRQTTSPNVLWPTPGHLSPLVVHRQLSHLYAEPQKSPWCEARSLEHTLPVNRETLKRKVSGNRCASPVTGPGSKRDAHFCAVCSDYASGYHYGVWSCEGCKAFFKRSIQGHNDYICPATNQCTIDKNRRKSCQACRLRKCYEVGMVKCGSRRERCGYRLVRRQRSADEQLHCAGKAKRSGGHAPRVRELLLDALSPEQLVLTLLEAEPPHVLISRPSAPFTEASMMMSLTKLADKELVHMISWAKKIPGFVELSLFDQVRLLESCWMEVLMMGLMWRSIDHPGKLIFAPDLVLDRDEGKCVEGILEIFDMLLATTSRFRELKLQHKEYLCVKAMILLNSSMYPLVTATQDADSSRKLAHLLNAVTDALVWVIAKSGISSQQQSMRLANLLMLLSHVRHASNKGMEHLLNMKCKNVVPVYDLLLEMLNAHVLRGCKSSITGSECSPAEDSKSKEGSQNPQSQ
Procedure: (§1) After seven days, the cells were seeded in 6-well plates (Nunc, Roskilde, Denmark) at a density of 1.5×10^5 cells per well. After 24 hours, the cells were transfected according to the calcium phosphate method with 2 μg of the reporter gene-encoding expression plasmid, 0.2 μg of the ERα-encoding or ERβ-encoding expression plasmid and, for reasons of normalisation, 0.2 μg of the cytomegalovirus-derived β-galactosidase. […] After 48 hours, the cells were harvested and assayed for luciferase and β-galactosidase activity. All transfection assays were performed in duplicate and were repeated at least twice.

human ERα = molecular target: T3, human ERα (Homo sapiens, UniProt P03372); experiment: p2ERE-TATA-luc reporter gene assay in CV1 cells transfected with ERα; assay type: cell-based; settings: FIG. 9
T3 construct: expressed in transfected cells; host or cells: CV1 cells
T3 sequence (P03372 whole entry): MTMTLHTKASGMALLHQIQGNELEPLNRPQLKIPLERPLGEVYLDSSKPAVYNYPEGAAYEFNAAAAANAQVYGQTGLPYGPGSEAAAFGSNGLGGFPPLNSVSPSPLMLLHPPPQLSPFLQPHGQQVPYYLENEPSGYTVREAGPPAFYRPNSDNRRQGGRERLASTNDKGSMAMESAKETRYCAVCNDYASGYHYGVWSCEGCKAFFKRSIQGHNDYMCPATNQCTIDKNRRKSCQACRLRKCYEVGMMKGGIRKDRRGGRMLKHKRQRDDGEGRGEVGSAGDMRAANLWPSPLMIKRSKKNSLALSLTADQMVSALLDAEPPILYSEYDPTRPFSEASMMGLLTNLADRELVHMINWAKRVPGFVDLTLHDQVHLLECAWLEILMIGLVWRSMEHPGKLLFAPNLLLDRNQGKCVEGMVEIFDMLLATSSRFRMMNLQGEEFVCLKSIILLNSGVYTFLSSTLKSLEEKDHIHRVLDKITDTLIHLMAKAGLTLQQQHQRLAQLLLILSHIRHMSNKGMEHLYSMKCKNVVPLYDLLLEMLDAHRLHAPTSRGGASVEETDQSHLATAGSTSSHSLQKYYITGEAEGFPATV
Procedure: as §1

[3] = tested on: pathologically altered androgen receptor; settings: background, prior work; cited from earlier work
[4] = no estradiol present, 10 μM or 100 μM

SMILES: Cc1cc(O)c(C)c(O)c1C(=O)OCCNS(=O)(=O)c1ccccc1 [A4, 2-[(phenylsulfonyl)amino]ethyl-2,4-dihydroxy-3,6-dimethylbenzoate]
- antiandrogenic effect of atraric acid derivatives and structurally similar compounds [1]: no antiandrogenic effect

SMILES: CC(C)=CCC/C(C)=C/COC(=O)c1cc(C)c(O)c(C)c1O [A5, (2E)-3,7-dimethylocta-2,6-dien-1-yl-2,4-dihydroxy-3,5-dimethylbenzoate]
- antiandrogenic effect of atraric acid derivatives and structurally similar compounds [1]: did not lead to an antiandrogenically active molecule

SMILES: Cc1cc(C(=O)OC(C)C)c(O)c(C)c1O [A6, isopropyl-2,4-dihydroxy-3,5-dimethylbenzoate]
- inactivation of androgen receptor-mediated transactivation [1]: still able to inactivate
- inhibition of androgen receptor-mediated transactivation [1]: nearly completely inhibiting

SMILES: CC(C)(O)C(=O)Nc1ccc([N+](=O)[O-])c(C(F)(F)F)c1 [OH—F, hydroxyflutamide, reference compound]
- growth of LNCaP cells [2]: did not lead to any reduction in growth

SMILES: COC(=O)c1c(C)c(Br)c(O)c(Br)c1O [R1, methyl-3,5-dibromo-2,4-dihydroxy-6-methylbenzoate]
- antiandrogenic effect of atraric acid derivatives and structurally similar compounds [1]: loss of anti androgenic activity

SMILES: COC(=O)c1ccc(O)c(C)c1O [R4, methyl-2,4-dihydroxy-3-methylbenzoate]
- inactivation of androgen receptor-mediated transactivation [1]: still able to inactivate
- inhibition of androgen receptor-mediated transactivation [1]: nearly completely inhibiting

SMILES: COC(=O)c1c(O)c(C)cc(C)c1O [R5, methyl-2,6-dihydroxy-3,5-dimethylbenzoate]
- antiandrogenic effect of atraric acid derivatives and structurally similar compounds [1]: loss of antiandrogenic activity

SMILES: Cc1cc(O)c(C)c(O)c1C(=O)O [R6, 2,4-dihydroxy-3,6-dimethylbenzoic acid]
- antiandrogenic effect of atraric acid derivatives and structurally similar compounds [1]: abrogates the antiandrogenic activity

SMILES: COC(=O)c1c(C)cc(O)c(C)c1O [atraric acid, methyl-2,4-dihydroxy-3,6-dimethylbenzoate]
- estrogen-responsive expression of the reporter gene (ERβ agonism) (human ERβ; [4]): activated in a dose-dependent manner
- hormone-mediated transactivation of ERβ (human ERβ; with estradiol): not affected
- growth of LNCaP cells versus untreated cells ([2]; 10 μM, 8th day of treatment): clearly slower
- growth of LNCaP cells [2]: reduced growth
- estrogen-responsive expression of the reporter gene (ERα agonism) (human ERα; [4]): activated in a dose-dependent manner
- hormone-mediated transactivation of ERα (human ERα; with estradiol): not affected

SMILES: CC(=O)[C@@]1(O)CC[C@H]2[C@@H]3C=C(Cl)C4=CC(=O)[C@@H]5C[C@@H]5[C@]4(C)[C@H]3CC[C@@]21C [cyproterone]
- inclusions in cells expressing a pathologically altered androgen receptor [3]: only a small number of inclusions

SMILES: C[C@]12CC[C@H]3[C@@H](CCC4=CC(=O)CC[C@@]43C)[C@@H]1CC[C@@H]2O [testosterone]
- inclusions in cells expressing a pathologically altered androgen receptor [3]: characteristic inclusions in the cytoplasm
